Laboratory results published in patent US10466233B2, “Genetically encoded probe for quantification of lactate and methods for quantifying metabolic rates and lactate transport” (CENTRO DE ESTUDIOS CIENTIFICOS DE VALDIVIA, priority 2012, dated 2019).

Key:
[1] = target: T1, mitochondrial pyruvate transporter (PT) (Homo sapiens, UniProt O95563+Q9Y5U8); experiment: Intracellular lactate in HEK293 cells after inhibition of the mitochondrial pyruvate transporter; type: cell-based; settings: concentration that does not affect MCT function
T1 construct: endogenous in cells; host or cells: HEK293 cells (ATCC) expressing the lactate sensor
T1 sequence (Q9Y5U8 1-109): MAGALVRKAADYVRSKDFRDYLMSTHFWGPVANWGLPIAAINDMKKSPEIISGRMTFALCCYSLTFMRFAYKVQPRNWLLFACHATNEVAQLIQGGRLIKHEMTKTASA
T1 sequence (O95563 1-127): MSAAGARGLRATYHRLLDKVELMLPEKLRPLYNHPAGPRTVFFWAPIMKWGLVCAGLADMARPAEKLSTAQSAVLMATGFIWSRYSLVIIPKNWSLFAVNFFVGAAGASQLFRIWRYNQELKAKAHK
From the text: (§1) Animals and Cell Cultures.
(§2) Fluorescence Measurements.
Because the reaction catalyzed by LDH is relatively fast, the cytosolic pools of lactate and pyruvate are tightly linked, and variations in pyruvate are faithfully mimicked by lactate. Accordingly, perturbation of the steady-state by addition of a blocker of the mitochondrial pyruvate transporter (PT) will cause intracellular lactate accumulation at a rate equal to the rate of pyruvate consumption by mitochondria.
To further validate methods 2 and 3, the blockers were applied sequentially and a mathematical model based on the kinetic model described in FIG. 14 was fitted to the data. The responses of intracellular lactate to transient inhibitions of the PT with 4-CIN (200 μM) and the MCTs with phloretin (50 μM) were measured in the same HEK293 cell in the presence of 25 mM glucose and no extracellular lactate. The straight lines represent the slopes of the lactate increases fitted by linear regression during the first minute (4-CIN) or during the whole exposure (phloretin). The red line represents the best fit of the kinetic model to the data, as described in Experimental Procedures, assuming full inhibition of the transporters. […] PT and lactate release rates respectively estimated from the initial slopes of lactate increase after transporter inhibition were over 90% of those estimated by modeling. […]

[2] = system: MCT; experiment: Intracellular lactate in HEK293 cells after MCT blockage; type: cell-based
Method: as §1, §2
The diagram in FIG. 14 illustrates how the intracellular concentration of lactate is determined by the dynamic balance between pyruvate production by glycolysis, pyruvate consumption by mitochondria and lactate exchange through MCTs. In cells that are exporting lactate, perturbation of the steady state by addition of a blocker of the MCT is expected to cause lactate accumulation. In cells that are net lactate importers, an MCT-blocker is expected to cause depletion in intracellular lactate. In both cases, the rate of change will be equal to the rate of lactate production or consumption. […] Phloretin is also known to inhibit GLUT glucose transporters, however this should not compromise the analysis of astrocytes, neurons, or the cell lines so far characterized, which maintain resting intracellular glucose at levels well above the Km of hexokinase (Bittner et al., 2010; Takanaga et al., 2008; Fehr et al., 2003). […]
To further validate methods 2 and 3, the blockers were applied sequentially and a mathematical model based on the kinetic model described in FIG. 14 was fitted to the data. The responses of intracellular lactate to transient inhibitions of the PT with 4-CIN (200 μM) and the MCTs with phloretin (50 μM) were measured in the same HEK293 cell in the presence of 25 mM glucose and no extracellular lactate. […]

[3] = system: oxidative phosphorylation; settings: astrocytes, 5 mM
Method: (§5) Animals and Cell Cultures. Animals used were mixed F1 male mice (C57BL/6J×CBA/J), kept in an animal room under Specific Pathogen Free (SPF) conditions at a room temperature of 20±2° C., in a 12/12 h light/dark cycle with free access to food and water. […] Mixed cortical cultures of neuronal and glial cells (1-3 day-old neonates) were prepared as described (Loaiza et al., 2003). […] Cultures were transfected at 60% confluence using Lipofectamine 2000 (Gibco) or alternatively, exposed to 5×10^6 PFU of Ad lactate sensor of the present invention (Vector Biolab), and studied after 24-72 h.
(§6) Fluorescence Measurements. […] Cells were imaged at room temperature (22-25° C.) in a 95% air/5% CO2-gassed solution of the following composition (in mM): 112 NaCl, 1.25 CaCl2, 1.25 MgSO4, 1-2 glucose, 10 HEPES, 24 NaHCO^3, pH 7.4, with 3 mM KCl (astrocytes) or 5 mM KCl (HEK and T98G) using an upright Olympus FV1000 Confocal Microscope equipped with a 20× water immersion objective (N.A. 1.0) and a 440 nm solid-state laser. Alternatively, cells were imaged with an Olympus IX70 or with an Olympus BX51 microscope equipped with a 40× oil-immersion objective (NA 1.3) or with a 20× water-immersion objective (NA 0.95). […]

[4] = target: T2, lactate sensor Variant 7: mTFP - full length L1dR from E. coli, no linkers - Venus, SEQ ID NO 7 (Escherichia coli, UniProt P0ACL7); experiment: Fluorescence ratio (FRET) dose-response of purified lactate nanosensor to lactate; type: binding; settings: millimolar levels
T2 construct: His tag (inferred from the nickel-resin purification); made in house; host or cells: E. coli BL21 (DE3)
Method: Also surprising was the observation that the DNA-binding domain is important for the FRET change, and that the sensors with no linkers are more responsive (FIG. 4). […] It contains the full length L1dR from E. coli and no linkers. […] The affinity constant of L1dR for L-lactate is not known. […] This unique property of L1dR confers the lactate sensor the desirable ability of reporting across four orders of magnitude (from 1 μM to 10 mM), instead of the two orders afforded by one-site sensors.
(§3) Protein Purification. Plasmid constructs were transformed into E. coli BL21 (DE3). A single colony was inoculated in 100 ml of LB medium with […] ampicillin (without IPTG) and shaken in the dark for 2-3 days. Cells were collected by centrifugation at 5000 rpm (4° C.) for 10 min and disrupted by sonication (Hielscher Ultrasound Technology) in 5 mL of Tris-HCl buffer pH 8.0. A cell-free extract was obtained by centrifugation at 10,000 rpm (4° C.) for 1 hour and filtering of the supernatant (0.45 μm). Proteins were purified using a Nickel resin (His Bin® from Novagen) as recommended by the manufacturer. Eluted proteins were quantified using the Biuret method and stored at −20° C. in 20% glycerol.
as §2

[5] = system: monocarboxylate transporter (MCT) in astrocytes; experiment: Astrocytic lactate uptake via MCT monitored with the lactate sensor; type: cell-based, mouse; settings: 1 mM lactate
From the text: as §1, §2
(§4) By controlling the exchange of lactate between cells and the interstitial space, MCTs are nodal points of tissue metabolism. MCTs catalyze the stoichiometric translocation of lactate and a proton and their activity can be measured with single-cell resolution by monitoring intracellular pH with a dye such as BCECF. However, 99.9% of protons are bound to proteins, phospholipids and other sites, and are exchanged through many transporters other than the MCT, which makes pH an imperfect proxy for lactate. To compare the performances of the lactate sensor of the present invention and BCECF, we chose astrocytes. When expressed in astrocytes, the lactate sensor of the present invention responded well to extracellular lactate, allowing real-time monitoring of lactate influx and efflux (FIG. 13). […] In contrast, exposure to extracellular lactate produced only a small change in intracellular pH as detected with BCECF (FIG. 15). […] Lactate may also be transported independently of protons through gap junctions (Rouach et al., 2008) and possibly through connexin hemichannels and pannexin channels, fluxes that are invisible to pH measurements and that may now be measured with the present invention.

[6] = system: MCT; experiment: Initial rate of astrocytic lactate uptake measured with the lactate sensor; type: cell-based, mice; settings: 1 mM lactate, 50 μM blocker, astrocytes
From the text: as §1, §2, §4

[7] = system: MCT; experiment: Intracellular lactate in astrocytes after MCT blockage; type: cell-based, mice; settings: 50 μM
Method: as §1, §2
The diagram in FIG. 14 illustrates how the intracellular concentration of lactate is determined by the dynamic balance between pyruvate production by glycolysis, pyruvate consumption by mitochondria and lactate exchange through MCTs. In cells that are exporting lactate, perturbation of the steady state by addition of a blocker of the MCT is expected to cause lactate accumulation. In cells that are net lactate importers, an MCT-blocker is expected to cause depletion in intracellular lactate. In both cases, the rate of change will be equal to the rate of lactate production or consumption. […] Phloretin is also known to inhibit GLUT glucose transporters, however this should not compromise the analysis of astrocytes, neurons, or the cell lines so far characterized, which maintain resting intracellular glucose at levels well above the Km of hexokinase (Bittner et al., 2010; Takanaga et al., 2008; Fehr et al., 2003). In these cells, glucose consumption remains constant for several minutes in the presence of glucose transporter blockers like phloretin or cytochalasin B (Bittner et al., 2010). Thus, during the first few minutes of phloretin application, the rate of lactate accumulation is not diminished by lack of glucose supply.

[8] = system: oxidative phosphorylation in astrocytes; experiment: Rate of lactate production on inhibition of oxidative phosphorylation, measured with the lactate sensor; settings: Mus musculus, Astrocyte, read-out: fold increase in the rate of lactate production
Method: as §5, §6

[9] = Fluorescence ratio (mTFP/Venus) response of purified lactate sensor to lactate in vitro; type: binding; settings: comparison of sensor variants (FIG. 4)
Method: as §3, §2

Question: With `N#CC(=Cc1ccc(O)cc1)C(=O)O` [Variant 4-CIN, α-Cyano-4-hydroxycinnamate] as the compound, how does the “effect on intracellular lactate” value [1] read?
Answer: The value was “led to an increase in intracellular lactate”.

Question: And the “block of MCTs” value ([2]; HEK293 cell, 200 μM, 25 mM glucose, no extracellular lactate)?
Answer: The value was “did not block MCTs to a significant extent”.

Question: For `[N-]=[N+]=[N-].[Na+]` [azide, sodium azide], which “increase in the rate of lactate production” value [3] is on record?
Answer: Its value is 26±4 fold.

Question: For `OC[C@H]1OC(O)[C@H](O)[C@@H](O)[C@@H]1O` (some centres unmarked) [glucose], which “change in FRET (specificity)” value [4] is on record?
Answer: Its value is “only lactate induced a significant change in FRET”.

Question: For `C[C@H](O)C(=O)O` [lactate], which “initial rate of astrocytic uptake of lactate” value [5] is on record?
Answer: Its value is 1.6 ± 0.5 µM/s.

Question: What about the “change in FRET (specificity)” value [4] of the same compound?
Answer: Its value is “only lactate induced a significant change in FRET”.

Question: For `O=C(CCc1ccc(O)cc1)c1c(O)cc(O)cc1O` [phloretin], which “inhibition of initial rate of astrocytic lactate uptake” value [6] is on record?
Answer: The value was 96±1%.

Question: What about the “effect on intracellular lactate” value [7] of the same compound?
Answer: Its value is “caused the expected increase in intracellular lactate”.

Question: And the “effect on intracellular lactate” value ([2]; HEK293 cells, 50 μM)?
Answer: Its value is “caused the expected increase in intracellular lactate”.

Question: Which fold induction at 5000 µM [8] does the source give for `[N-]=[N+]=[N-]` [sodium azide] here?
Answer: The fold induction at 5000 µM was 26 ± 4.

Question: Which “change in fluorescence ratio in response to lactate” value [9] does the source give for “Variant 7: Most responsive FRET lactate sensor: mTFP, full length L1dR from E. coli, no linkers, Venus; SEQ ID NO 7” here?
Answer: Its value is “most responsive variant”.
